# Reference: the supplement of paper PMC10307832
# Experiments:
# Test in all cases: relative viability (nuclei count vs DMSO), 5 days (fraction); higher = more cells survive
# [1] = compound: C1CC1C(=O)NC2=NNC3=C2C=CC(=C3)C4=CC(=CC=C4)C(=O)NC5CC5 [XMD13-2] + O=C(c1cc(Cc2n[nH]c(=O)c3ccccc23)ccc1F)N1CCN(C(=O)C2CC2)CC1 [Olaparib] (partner 8 µM)
# How it was run: (§1)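 Relative viability divides the nuclei count in treated wells by that in vehicle wells. Lung cancer cell lines were seeded in 1536-well plates, dosed by pin tool the next day, and fixed and stained after 5 days in one step with final 0.05% Triton X-100, 1% formaldehyde and 1 ug/ml Hoechst. Dosing was a single drug or a fixed anchor-drug dose plus five library-drug doses (not always all listed) in √10 steps, and values are medians of duplicate plates imaged at 4×.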
# [2] = compound: Cc1nc(Nc2ncc(C(=O)Nc3c(C)cccc3Cl)s2)cc(N2CCN(CCO)CC2)n1 [Dasatinib] + CS(=O)(=O)CCNCc1ccc(-c2ccc3ncnc(Nc4ccc(OCc5cccc(F)c5)c(Cl)c4)c3c2)o1 [Lapatinib] (partner 2 µM)
# How it was run: as §1
# [3] = compound: Cc1nc(Nc2ncc(C(=O)Nc3c(C)cccc3Cl)s2)cc(N2CCN(CCO)CC2)n1 [Dasatinib] + C[C@]1(O)C[C@@H](c2nc(-c3ccc4ccc(-c5ccccc5)nc4c3)c3c(N)nccn32)C1 [Linsitinib] (partner 1 µM)
# How it was run: as §1
# [4] = compound: C1CC1C(=O)NC2=NNC3=C2C=CC(=C3)C4=CC(=CC=C4)C(=O)NC5CC5 [XMD13-2]
# How it was run: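 Viability is treated-well nuclei as a fraction of vehicle-well nuclei, reported as the median across plates. Before counting, lung cancer cell lines were kept overnight at 37 °C in 1536-well plates, pinned with five √10-spaced library-drug doses on vehicle-anchored plates, and left 5 days without medium change, then fixed, permeabilised and Hoechst-stained in one step, imaged at 4× and counted by MetaXpress. A plate passed only if control CV was below 25% and at least one doubling occurred.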
Cell Line,relative viability ([1]; first compound 0.05 µM),relative viability ([1]; first compound 0.1581 µM),relative viability ([1]; first compound 0.5 µM),relative viability ([1]; first compound 1.581 µM),relative viability ([1]; first compound 5 µM),relative viability ([2]; first compound 0.005 µM),relative viability ([2]; first compound 0.01581 µM),relative viability ([2]; first compound 0.05 µM),relative viability ([2]; first compound 0.1581 µM),relative viability ([2]; first compound 0.5 µM),relative viability ([3]; first compound 0.005 µM),relative viability ([3]; first compound 0.01581 µM),relative viability ([3]; first compound 0.05 µM),relative viability ([3]; first compound 0.1581 µM),relative viability ([3]; first compound 0.5 µM),relative viability ([4]; 0.05 µM),relative viability ([4]; 0.1581 µM),relative viability ([4]; 0.5 µM),relative viability ([4]; 1.581 µM),relative viability ([4]; 5 µM)
LOU-NH91,0.976,0.958,0.97,0.869,0.944,0.673,0.592,0.571,0.503,0.414,0.961,0.847,0.715,0.549,0.412,1.12,0.979,0.965,0.85,1.15
LU99A,0.288,0.277,0.248,0.273,0.263,0.954,0.838,0.914,0.628,0.489,0.494,0.481,0.434,0.199,0.173,1.05,1.05,1.01,1.03,0.927
LXF-289,1.28,1.03,1.15,0.99,1.05,0.941,1.01,0.971,0.604,0.223,1,0.974,0.831,0.202,0.131,1.07,1.02,1.04,1.07,1.05
NCI-H23,0.336,0.342,0.365,0.3,0.281,1.01,1.09,0.911,0.539,0.764,0.483,0.38,0.505,0.315,0.213,1.04,0.907,1.04,0.801,1.07
NCI-H322M,0.807,0.848,0.553,,1.04,0.582,0.345,0.373,0.246,0.189,1.04,0.703,0.708,0.319,0.196,1.05,0.918,0.893,0.911,1.08
NCI-H358,0.72,0.618,0.667,0.718,0.61,0.484,0.377,0.295,0.251,0.291,0.607,0.484,0.387,0.232,0.277,1.18,0.918,1.06,0.928,0.704
NCI-H460,0.546,0.493,0.412,0.526,0.566,1.06,0.598,0.743,0.482,0.376,0.315,0.229,0.157,0.0338,0.0131,1.06,1.01,1.06,1.01,0.982
NCI-H520,0.333,0.325,0.498,0.36,0.307,0.729,0.447,0.464,0.228,0.21,0.719,0.598,0.453,0.249,0.19,1.09,1.09,1.08,0.851,0.643
NCI-H596,0.703,0.729,0.738,0.704,0.769,1.03,0.809,0.714,0.586,0.423,0.854,0.828,0.784,0.449,0.328,1.03,1.02,0.944,1.03,1.12
NCI-H647,0.622,0.435,0.545,0.602,0.234,0.524,0.449,0.393,0.237,0.189,1.02,0.46,0.627,0.319,0.192,1.12,1.05,1.06,1.03,0.747
NCI-H650,0.379,0.379,0.424,0.462,0.356,0.471,0.907,0.723,0.555,0.387,0.847,0.941,0.892,0.416,0.396,1.1,0.963,1.04,0.845,1.03
NCI-H661,0.728,0.671,0.739,0.767,0.66,0.295,0.29,0.276,0.318,0.234,0.43,0.329,0.31,0.236,0.215,0.971,1.04,0.971,0.976,0.844
NCI-H727,0.679,0.711,0.683,0.74,0.647,0.588,0.667,0.581,0.37,0.277,0.233,0.249,0.262,0.13,0.152,1.06,0.892,0.973,0.947,1.04
NCI-H838,0.865,0.749,0.817,0.774,0.699,0.925,0.678,0.504,0.252,0.237,0.832,0.628,0.573,0.243,0.221,1.11,0.962,1.01,0.998,1.07
NCI-H1299,0.953,0.991,0.959,0.972,1,0.971,0.971,1.1,0.529,0.299,0.978,0.996,0.93,0.286,0.146,0.984,1.04,1.05,1.04,1.09
